Assay results as given in PMC8907375, “Arylated analogues of cypronazole: fungicidal effect and activity on human fibroblasts. Docking analysis and molecular dynamics simulations” (Natural Products and Bioprospecting, 2022).
In brackets after ≈: the same amount, converted by molar mass. Read-outs that look alike come from different tables or passages of the source.

Key:
A. terreus (M16C) = assay: In vitro antifungal activity, broth microdilution (MIC100); format: cell-based, Aspergillus terreus; settings: 48 h; for MIC100 (complete growth inhibition): Aspergillus terreus, read-out: Fungicidal activity MIC100, AT, A. terreus, 30 °C, total growth inhibition
Experimental: (§1) Fungal growth was assessed at six concentrations (3.1–100 μg/mL), using enriched Czapek broth in the presence of triazole 1-8 (Fig. 2). Each treatment was carried out in triplicate. The Minimum Inhibitory Concentration (MIC100) was determined and was defined as the minimum concentration required to inhibit the complete fungal growth inhibition under the conditions of the assay. Triadimefon (TDM) and cyproconazole (CPZ) were used as positive control. In order to evaluate the efficacy of the new compounds to control fungi affecting vineyards, imperfect fungi isolated from infected grapes from the province of San Juan in Argentina were employed. Significant differences were determined by t-Student hypothesis test p, at 95% confidence. In general, moderate to good activity was observed compared to the reference compounds as well as some selectivity against microorganisms.
(§2) The imperfect fungi used for the assays included Botrytis cinerea isolated from grapevine samples, Aspergillus fumigatus (ATTC 26934), A. niger (ATCC 9029), A. ustus (PN-S4), A. japonicus (M15C), A. terreus (M16C) and Fusarium oxysporum (M15-Pa) isolated from soil samples from the province of San Juan, Argentina. The microorganisms were grown on Czapek-yeast extract agar (CYA) prepared with yeast extract, K2HPO4, saccharose, agar, distilled water and enriched with a solution of mineral salts (NaNO3, KCl, MgSO4.7H2O and FeSO4.7 H2O). Inocula were adjusted to 1–5 × 10^4 colony forming units (CFU/ mL).
(§3) The minimum inhibitory concentration (MIC) of each compound was evaluated using broth microdilution techniques in 96-well microtiter plates according to the guidelines of the National Committee for Clinical Laboratory Standards for filamentous fungi M 38 A. The starting inoculum was 1–5 × 10^4 CFU/mL in accordance with the Clinical and Laboratory Standards Institute (CLSI, formerly the National Committee for Clinical Laboratory Standards [NCCLS]) (M27-A3 document for yeasts, and M38-A2 document for filamentous fungi).
(§4) Microtiter plates were incubated at 30 °C for Aspergillus and Fusarium, and 22 °C for B. cinerea in a moist and dark chamber. MIC values were recorded after 48 h for Aspergillus and Fusarium spp., and after 72 h for B. cinerea, according to the fungal growth control. TDM and CPZ were used as positive controls (12.5–50 μg/mL). Stock solutions were two-fold diluted with RPMI from 1000 to 0.98 μg/mL (final volume equal to 100 μL), and a final DMSO concentration ≤ 1%. An inoculum suspension (100 μL) was added to each well with the exception of the sterility control. Endpoints were defined as the lowest compound concentration resulting in total growth inhibition (MIC100) compared to the growth in control wells. MICs values ≤ 50 μg/mL were considered of interest. The assay was carried out in triplicate.

[1] = tested on: B. cinerea (isolated from grapes); assay: as above; format: cell-based, Botrytis cinerea; settings: for MIC100 (complete growth inhibition) / Fungicidal activity MIC100, BC: 22 °C, total growth inhibition
Experimental: as §1, §2, §3, §4

[2] = tested on: Aspergillus fumigatus (ATTC 26934); assay: as above; format: cell-based; settings: A. fumigatus, 30 °C, 48 h, total growth inhibition; for Minimum inhibitory concentration (MIC100): Aspergillus fumigatus, read-out: Fungicidal activity MIC100, AF
Experimental: as §1, §2, §3, §4

[3] = tested on: Fusarium oxysporum (M15-Pa); assay: as above; format: cell-based; settings: 30 °C, 48 h, total growth inhibition; for MIC100 (minimum concentration for complete growth inhibition): Fusarium oxysporum, F. oxysporum, read-out: Fungicidal activity MIC100, F
Experimental: as §1, §2, §3, §4

A. japonicus (M15C) = assay: as above; format: cell-based, Aspergillus japonicus; settings: 48 h; for MIC: read-out: Fungicidal activity MIC100, AJ; for Fungicidal activity MIC100, AJ: A. japonicus, 30 °C, total growth inhibition
Experimental: as §1, §2, §3, §4

[4] = Cytotoxicity, neutral red uptake assay; format: cell-based, human; settings: human
Experimental: (§5) The cytotoxic effect of the compounds, expressed as cell viability, was assessed on a permanent fibroblast cell line derived from human lung (MRC-5) (ATCC CCL-171). MRC-5 fibroblasts were grown as monolayers in minimum essential Eagle medium (MEM) with Earle’s salts, 2 mM l-glutamine and 2.2 g/L sodium bicarbonate, supplemented with 10% heat inactivated fetal bovine serum (FBS), 100 IU/mL penicillin and 100 µg/mL streptomycin in a humidified incubator with 5% CO2 in the air at 37 °C. Cell passage was maintained between 10 and 16. The medium was changed every 2 days.
(§6) Confluent cultures of MRC-5 fibroblasts were treated with medium containing the compounds at concentrations ranging from 0 to 1000 µM. For comparison purposes, the commercial antifungals CPZ and TDM were used as references, the products were first dissolved in DMSO and then in MEM, supplemented with 2% FBS. The final content of DMSO in the test medium and controls was 1%. Cells were exposed for 24 h to the test medium with or without the compound (control). Each concentration was tested in quadruplicate together with the control, and repeated three times in separate experiments. At the end of the incubation, the neutral red uptake (NRU) assay was carried out. To calculate the IC50 values (concentration that produces a 50% inhibitory effect on the evaluated parameter), the results were transformed to percentage of controls and the IC50 values were graphically obtained from the dose–response curves.

A. ustus (PN-S4) = assay: In vitro antifungal activity, broth microdilution (MIC100); format: cell-based, Aspergillus ustus; settings: 30 °C, 48 h, total growth inhibition; for MIC100 (complete growth inhibition): Aspergillus ustus, read-out: Fungicidal activity MIC100, AU
Experimental: as §1, §2, §3, §4

A. niger (ATCC 9029) = assay: as above; format: cell-based, Aspergillus niger; settings: 48 h, total growth inhibition; for MIC100 (complete growth inhibition): Aspergillus niger, ATCC9029, 30 °C, read-out: Fungicidal activity MIC100, AN; for Fungicidal activity MIC100, AN: 30 °C
Experimental: as §1, §2, §3, §4

[5] = tested on: human lung fibroblasts MRC-5; assay: Cytotoxicity, neutral red uptake assay; format: cell-based
Experimental: as §5, §6

[6] = Botrytis cinerea, B. cinerea, 72 h, read-out: Fungicidal activity MIC100, BC
[7] = Botrytis cinerea, B. cinerea, molar conversion of the µg/mL value, read-out: MIC100 against B. cinerea expressed

Row | Structure (SMILES) | MIC100 (complete growth inhibition) (A. terreus (M16C)) | MIC100 (complete growth inhibition) [1, 6] | Minimum inhibitory concentration (MIC100) [2] | MIC100 (minimum concentration for complete growth inhibition) [3] | MIC (A. japonicus (M15C)) | IC50 at 24 h [4] | MIC100 (complete growth inhibition) (A. ustus (PN-S4)) | MIC100 (complete growth inhibition) (A. niger (ATCC 9029)) | Fungicidal activity MIC100, AT (A. terreus (M16C); A. terreus, 30 °C, total growth inhibition) | Fungicidal activity MIC100, AF [2] | Fungicidal activity MIC100, F [3] | Fungicidal activity MIC100, AJ (A. japonicus (M15C)) | IC50 [5] | Fungicidal activity MIC100, AU (A. ustus (PN-S4)) | Fungicidal activity MIC100, AN (A. niger (ATCC 9029)) | Fungicidal activity MIC100, BC ([1]; B. cinerea, 72 h) | MIC [1, 7] | MFC ([1]; Botrytis cinerea, 72 h, read-out: Fungicidal activity MIC100, BC) | MIC ([1]; Botrytis cinerea, read-out: MIC100 against B. cinerea expressed in µM) | IC50 at 24 h ([4]; MRC-5 fibroblasts, 24 h exposure, neutral red uptake, ± SD, read-out: Cytotoxicity IC50)
1 | CC(C)(C)C(=O)C(Oc1ccc(-c2ccc(F)cc2)cc1)n1cncn1 (centres unmarked) [Compound 2] | ≥ 100 µg/mL | ≥ 100 µg/mL | ≥ 100 µg/mL | ≥ 100 µg/mL | ≥ 100 µg/mL | 90 ± 4.3 µM | ≥ 100 µg/mL | ≥ 100 µg/mL |  |  |  |  |  |  |  |  |  |  |  | 
2 | CC(C1CC1)C(O)(Cn1cncn1)c1ccc(-c2ccc([N+](=O)[O-])cc2)cc1 (centres unmarked) [Compound 6, 3-Cyclopropyl-2-(4'-nitro-[1,1'-biphenyl]-4-yl)-1-(1H-1,2,4-triazol-1-yl)butan-2-ol] | ≥ 100 µg/mL | ≥ 100 µg/mL | ≥ 100 µg/mL | ≥ 100 µg/mL | ≥ 100 µg/mL |  | ≥ 100 µg/mL | ≥ 100 µg/mL |  |  |  |  |  |  |  |  |  |  |  | 
3 | c1nc[nH]n1 [Compound 8, 1H-1,2,4-Triazole] |  |  |  |  |  |  |  |  | ≥ 100 µg/mL | ≥ 100 µg/mL | ≥ 100 µg/mL | ≥ 100 µg/mL | > 1000 µM | ≥ 100 µg/mL | ≥ 100 µg/mL |  |  |  |  | 
4 | CC(C1CC1)C(O)(Cn1cncn1)c1ccc(-c2ccccc2)cc1 (centres unmarked) [Compound 3, 2-(Biphenyl-4-yl)-3-cyclopropyl-1-(1H-1,2,4-triazol-1-yl)butan-2-ol] | ≥ 100 µg/mL | 25 µg/mL (≈ 75 µM) | ≥ 100 µg/mL | 5 µg/mL | 12.5 µg/mL (≈ 37.5 µM) | 118 ± 9.4 µM | 6.25 µg/mL (≈ 18.7 µM) | 3.12 µg/mL (≈ 9.36 µM) |  |  | 5 ± 0.4 µg/mL | 12.5 ± 0.8 µg/mL |  | 6.25 ± 0.3 µg/mL | 3.12 ± 0.3 µg/mL | 25 ± 1.4 µg/mL | 75 µM (≈ 25 µg/mL) |  |  | 
5 | CC(C)(C)C(=O)C(Oc1ccc(-c2ccccc2)cc1)n1cncn1 (centres unmarked) [Compound 1, 1-(Biphenyl-4-yloxy)-3,3-dimethyl-1-(1H-1,2,4-triazol-1-yl)butan-2-one] | ≥ 100 µg/mL |  | 80 ± 2.5 µg/mL (≈ 239 µM) | ≥ 100 µg/mL | ≥ 100 µg/mL | 389 ± 23.5 µM | 50 ± 1.2 µg/mL (≈ 149 µM) | 50 ± 1.7 µg/mL (≈ 149 µM) |  |  |  |  |  |  |  | 10 ± 0.7 µg/mL |  | 10 µg/mL (≈ 29.8 µM) | 29.8 µM (≈ 10 µg/mL) | 
6 | C[C@@H](c1ncncc1F)[C@](O)(Cn1cncn1)c1ccc(F)cc1F [VOR, voriconazole, reference compound] | 6.25 ± 0.8 µg/mL (≈ 17.9 µM) | < 0.75 µg/mL | < 0.75 µg/mL | < 0.75 µg/mL | < 0.75 µg/mL |  | 1.25 µg/mL (≈ 3.58 µM) | 1.25 ± 0.4 µg/mL (≈ 3.58 µM) |  |  |  |  |  | 1.25 ± 0.5 µg/mL |  |  |  |  |  | 
7 | COc1ccc(-c2ccc(C(O)(Cn3cncn3)C(C)C3CC3)cc2)cc1 (centres unmarked) [Compound 5, 3-Cyclopropyl-2-(4'-methoxy-[1,1'-biphenyl]-4-yl)-1-(1H-1,2,4-triazol-1-yl)butan-2-ol] | ≥ 100 µg/mL | ≥ 100 µg/mL | ≥ 100 µg/mL | ≥ 100 µg/mL | ≥ 100 µg/mL | 732 ± 29.3 µM | ≥ 100 µg/mL | 6.25 µg/mL (≈ 17.2 µM) |  |  |  |  |  |  | 6.25 ± 0.4 µg/mL |  |  |  |  | 
8 | CC(C1CC1)C(O)(Cn1cncn1)c1ccc(-c2ccc3ccccc3c2)cc1 (centres unmarked) [Compound 7] | ≥ 100 µg/mL | ≥ 100 µg/mL | ≥ 100 µg/mL | ≥ 100 µg/mL | ≥ 100 µg/mL | 49.1 ± 3.4 µM | 6.25 µg/mL (≈ 16.3 µM) | ≥ 100 µg/mL |  |  |  |  |  | 6.25 ± 0.3 µg/mL |  |  |  |  |  | 
9 | CC(C)(C)C(=O)C(Oc1ccc(Cl)cc1)n1cncn1 (centres unmarked) [TDM, 1-(4-chlorofenoxy)-3,3-dimethyl-1-(1H-1,2,4-triazol-1-yl)butan-2-one, reference compound] | > 100 µg/mL | 80 µg/mL (≈ 272 µM) | 80 µg/mL (≈ 272 µM) | ≥ 100 µg/mL | ≥ 100 µg/mL |  | 80 ± 2.6 µg/mL (≈ 272 µM) | ≥ 100 µg/mL |  | 80 ± 2.4 µg/mL |  |  |  |  |  | 80 ± 2.2 µg/mL | 274 µM (≈ 80.5 µg/mL) |  |  | 248 ± 12.4 µM
